Results taken from patent publication US20100324312A1, “NOVEL METHYLATED CATECHIN AND COMPOSITION CONTAINING THE SAME” (INCORPORATED ADMINSTRATIVE AGENCY NATIONAL AGRICULTURE AND …, priority 2007, published 2010).

Assays:
[1] = tested on: BMMC (mouse bone marrow-derived mast cells); experiment: Histamine release inhibitory activity in mouse mast cells (IgE-sensitized BMMC, DNP-HSA induced degranulation); format: cell-based; conditions: 12.5 and 25 μg/mL test sample, 10 min incubation, DNP-HSA antigen 20 min; histamine in supernatant relative to control (distilled water); FIG. 2; compared with epigallocatechin-3-O-gallate and epigallocatechin-3-O-(3-O-methyl)gallate
Description: FIG. 2 is a graph showing the histamine release inhibitory activity in mouse mast cells. In FIG. 2, numeral 1 denotes 12.5 μg/mL of epigallocatechin-3-O-gallate; numeral 2 denotes 25 μg/mL of epigallocatechin-3-O-gallate; numeral 3 denotes 12.5 μg/mL of epigallocatechin-3-O-(3-O-methyl)gallate: numeral 4 denotes 25 μg/mL of epigallocatechin-3-O-(3-O-methyl)gallate; numeral 5 denotes 12.5 μg/mL of epi(3-O-methyl)gallocatechin-3-O-(3,5-O-dimethyl)gallate; and numeral 6 denotes 25 μg/mL of epi(3-O-methyl)gallocatechin-3-O-(3,5-O-dimethyl)gallate.
The effect of epi(3-O-methyl)gallocatechin-3-O-(3,5-O-dimethyl)gallate was determined based on the histamine release inhibitory activity in mouse mast cells. Epigallocatechin-3-O-gallate and epigallocatechin-3-O-(3-O-methyl)gallate known to have stronger antiallergic activity than epigallocatechin-3-O-gallate were used as comparison substances. […] Then, DNP-HSA (antigen) was added thereto to induce degranulation (20 minutes), and the amount of histamine in the supernatant was measured by liquid chromatography. The antiallergic activity was evaluated based on the relative value with respect to the value for the control (distilled water). […]

[2] = compared with EGCG; cited from earlier work

Row | Compound | histamine release inhibitory activity [1] | antiallergic activity [2]
1 | COc1cc([C@H]2Oc3cc(O)cc(O)c3C[C@H]2OC(=O)c2cc(OC)c(O)c(OC)c2)cc(O)c1O [epi(3-O-methyl)gallocatechin-3-O-(3,5-O-dimethyl)gallate] | stronger than those of the comparison substances | –
2 | COc1c(O)cc(C(=O)O[C@@H]2Cc3c(O)cc(O)cc3O[C@@H]2c2cc(O)c(O)c(O)c2)cc1O [epigallocatechin-3-O-(4-O-methyl)gallate] | – | stronger antiallergic activity than EGCG
3 | epigallocatechin-3-O-(3-O-methyl)gallate | – | stronger antiallergic activity than EGCG
